Values of other authors in patent US20160128970A1, “COMPOSITION AND METHOD FOR TREATING NOSEBLEEDS” (BINYARCO, LLC, priority 2005, published 2016).

Which solubility in water does the source give for bismuth subgallate here?
Its solubility in water is “insoluble in water”.
